Our source for the EC50 values is PubChem BioAssay AID2423 (Broad Institute, 2010).

Records with an inconclusive call do not appear. Active and inactive are the calls of the source. No rule for the calls is given here.

This assay relates to C. albicans CaCi-8 + fluconazole, Alamar Blue growth, 48 h. Description: resistant C. albicans growth inhibition with fluconazole, dose response, CaCi-8 strain, Alamar Blue fluorescence (AID 2423).
Broadly, the EC50 is the concentration at which the effect is half-maximal. As to `O=[N+]([O-])c1cc(CN2CCN(c3ccccc3)CC2)c(O)c2ncccc12`, the EC50 was 335 nM.
The figure for `CC(C)CCOC(=O)C[N+](C)(C)CCOC1CC2CCC1(C)C2(C)C` (configuration not stated) is 3050 nM.
With `CCN1/C(=C/c2ccc3cccc(C)c3[n+]2CC)Sc2ccccc21`, the EC50 is less than 120 nM.
Under `COc1cccc(/C=N/NC(=O)c2c(C)nc3ccc(Br)cn23)c1O` stands 642 nM; under `S=C(Nc1ccccc1)Nc1nc2ccccc2n1CCOc1ccccc1`, 2000 nM; under `Cc1cc(NC(c2ccc(Cl)cc2)c2ccc3cccnc3c2O)no1` (configuration not stated), 598 nM.
Under `O=C(NCc1cc([N+](=O)[O-])ccc1O)c1cccnc1Sc1ccccc1Cl` stands 148 nM; under `COc1cc(/C=C/C(=O)Nc2cccnc2)cc(OC)c1OC`, > 16000 nM (inactive).
In the case of `[O-][n+]1cccc2c(Br)cc(Br)c(O)c21`, the EC50 was 652 nM.
The figure for `O=C(N/N=C\c1c(O)ccc2ccccc12)c1cncc(Br)c1` is 689 nM; for `CCN(CC)c1ccc(N=Cc2ccc(N(CC)CC)cc2O)cc1` it is 11100 nM; for `O=C(N/N=C/c1ccc[nH]1)c1cc2ccccc2cc1O` it is 3940 nM.
On to `Cc1ccc(C)c(-c2nnc(NC(=O)c3ccco3)o2)c1`, for which the concentration for a half-maximal effect (EC50) was 957 nM.
Under `S=C(NCCN1CCOCC1)NC1CCCC1` stands > 15000 nM (inactive); under `CCN1/C(=C/c2cccc[n+]2C)Sc2ccc(OC)cc21`, 10700 nM; under `Cc1sc(NC(=O)c2ccc(Br)s2)c(C(N)=O)c1C`, 952 nM.
Under `CN(C)S(=O)(=O)Oc1cccc(C(=O)Nc2cccc(Cl)c2)c1` stands 1350 nM; under `CC(NC(=O)Nc1ccccc1F)C(C)(C)C` (configuration not stated), > 16000 nM (inactive); under `Oc1ccc(/C=N/NP(=S)(c2ccccc2)c2ccccc2)c(O)c1O`, 8830 nM.
Under `O=C(c1ccc(C(=O)N2CCN(c3ccccc3F)CC2)nc1)N1CCN(c2ccccc2F)CC1` stands > 16000 nM (inactive).
For `Cc1ccsc1C(=O)OCC(=O)Nc1sccc1C(N)=O`, the EC50 is 866 nM.
Turning to `C=CCOC(=O)c1sc(NC(=O)c2ccco2)nc1C`, the EC50 was 348 nM.
Under `O=[N+]([O-])c1ccc(O)c2ncccc12` stands 681 nM; under `NNC(=O)c1cc(O)c(O)c(O)c1`, 8640 nM; under `COc1cccc(C2C(C(=O)c3cc4ccccc4o3)=C(O)C(=O)N2c2cc(C)on2)c1OC` (configuration not stated), 154 nM.
As for `CCOc1cc(-c2nc(-c3cc(OC)c(OC)c(OC)c3)no2)cc(OCC)c1OCC`, the EC50 is > 16000 nM (inactive).
Under `O=C(c1ccc2c(c1)OCO2)N1CCC2(CC1)Oc1ccc(Cl)cc1C(=O)C21CC(c2cccnc2)=NO1` (configuration not stated) stands 438 nM; under `CC1Oc2cc3oc4c(O)c(O)ccc4c(=O)c3c(O)c2C1(C)C` (configuration not stated), 14400 nM.
Under `O=C(Oc1c(Cl)cc(Cl)c2cccnc12)c1ccco1` stands 465 nM; under `S=c1nc[nH]c2c1cnn2Cc1ccccc1`, 2330 nM; under `CCCn1nnnc1NC(=O)c1ccc2ccccc2c1`, 1660 nM.
On to `Cc1cc(C(=O)Nc2ccccc2C(=O)O)ccc1NC(=O)COc1cccc([N+](=O)[O-])c1`, for which the EC50 was 5270 nM.
The figure for `O=C(N/N=C/c1cc2c3c(c1O)CCCN3CCC2)c1ccccc1O` is 895 nM; for `N#C/C(=C(/O)c1ccco1)c1nc2ccccc2[nH]1` it is 676 nM.
On to `O=C(NC1CCCCC1)C(c1ccc2ncccc2c1)N(Cc1ccc(F)cc1)C(=O)c1ccc2c(c1)OCCO2` (configuration not stated), for which the EC50 was > 15000 nM (inactive).
The figure for `O=C(CNc1ccc2ccccc2c1)N/N=C/c1ccc([N+](=O)[O-])o1` is 1280 nM; for `COc1cccc2sc(Nc3nnc(-c4ccc(F)cc4)o3)nc12` it is 1240 nM; for `Cc1ccc(-n2[nH]c(C)c(/C=N/NC(=O)c3ccc([N+](=O)[O-])cc3)c2=O)c(C)c1` it is 3530 nM.
Under `Cc1cccc(/C=C/C(=O)c2cc(Br)ccc(=O)c2O)c1` stands 987 nM.
For the compound `O=c1cc2oc3cc(O)c(O)cc3c(-c3ccccc3[N+](=O)[O-])c-2cc1O`, the EC50 is 1520 nM.
Under `O=C1NC(=O)/C(=C\c2ccc(Br)o2)S1` stands 1720 nM; under `CCc1ccc(/C=C2/SC(=S)N(CCCC(=O)Nc3ccccc3C(=O)O)C2=O)cc1`, 982 nM.
The figure for `CCCc1ccc(C2C3=C(CC(C)(C)CC3=O)NC3=C2C(=O)c2ccccc23)cc1` (configuration not stated) is 1780 nM.
Under `Cc1ccnc(Sc2ccc([N+](=O)[O-])cc2[N+](=O)[O-])n1` stands 964 nM.
With `Cc1ccc(Nc2nc(N)c([N+](=O)[O-])c(N3CCC(C)CC3)n2)cc1C`, the EC50 is 3640 nM.
Turning to `CCOc1ccc2nc(N=NC3=C(O)CC(C)(C)CC3=O)sc2c1`, the EC50 was > 16000 nM (inactive).
Take `CCNC(=S)NNC(=O)c1cc(-c2cccc(C)c2)nc2ccccc12`: the EC50 is 2270 nM.
Under `O=C(NCc1ccco1)c1ccccc1NS(=O)(=O)c1ccc(Br)s1` stands > 16000 nM (inactive); under `Cc1cccc(C(=O)CC(=O)c2cc(Cl)ccc2O)c1`, 2670 nM.
The figure for `COc1cccc(/C=N/NC(=O)c2nc(-c3ccccc3)cc(-c3ccccc3)n2)c1O` is 1760 nM; for `CCC(C)(C)c1ccc(OCCCC[n+]2ccc(C)cc2)c(C(C)(C)CC)c1` it is > 16000 nM (inactive).
For `C/C(=N\NC(=O)c1cc(-c2cccnc2)nc2ccccc12)c1ccc(O)cc1O`, the EC50 was 1450 nM.
The figure for `Nc1n[nH]c(-c2cccc([N+](=O)[O-])c2)n1` is > 15000 nM (inactive); for `Nc1nnnn1/N=C/c1cccc(Oc2ccccc2)c1` it is 3450 nM.
Under `O=C(N/N=C/c1sc(N2CCOCC2)nc1-c1ccccc1)c1cccc(S(=O)(=O)N2CCCC2)c1` stands 2160 nM; under `OC(COc1ccc2c(c1)OCO2)CN1CCCC1` (configuration not stated), > 15000 nM (inactive).
Under `CCOc1ccc(CN(C(=O)c2oc3ccccc3c2C)C2CCS(=O)(=O)C2)cc1` (configuration not stated) stands > 16000 nM (inactive); under `O=CNCCCc1nc2ccccc2n1Cc1cccc2ccccc12`, 3520 nM; under `CN1C(=O)/C(=C/c2cn(CC(=O)N3CCCCC3)c3ccccc23)NC1=S`, > 15000 nM (inactive).
For `CCOc1ccc(C(Nc2cccnc2)c2cc(Cl)c3cccnc3c2O)cc1` (configuration not stated), the EC50 was 930 nM.
The figure for `Oc1ccc(CN2CCC(Cc3ccccc3)CC2)c2cccnc12` is 1340 nM; for `O=c1[nH]c(=S)[nH]nc1Cc1ccc(Cl)c(Cl)c1` it is 1400 nM; for `O=C(CSCc1cccc(CSCC(=O)Nc2ccccc2)n1)Nc1ccccc1` it is > 15000 nM (inactive).
Under `O=C(COS(=O)c1ccccc1)Nc1cc(Cl)ccc1N1CCOCC1` (configuration not stated) stands 3110 nM.
As for `CC(=O)c1ccc(NC(=O)Nc2cccc3ccccc23)cc1`, the EC50 was > 15000 nM (inactive).
Under `CCn1c(O)c(N=NC(=O)c2cccs2)c2ccccc21` stands 1320 nM; under `FC(F)(F)c1ccccc1NC(=S)NN=C1CCCCCC1`, 4950 nM.
Under `CC(=O)Oc1ccc2c(=O)c(-c3nc4ccccc4s3)coc2c1` stands 3520 nM.
Turning to `CCN(CC)c1ccc(/C=C/c2cccc[n+]2C)c(OC)c1`, the EC50 was 1230 nM.
The figure for `CCn1c(C)nc2cc(C(=O)N/N=C/c3cccc(OC)c3O)ccc21` is > 16000 nM (inactive); for `C/C(=N\NC(=O)c1nn(C)c(C)c1Br)c1ccc(NC(=O)C2CCCC2)cc1` it is > 15000 nM (inactive); for `Cc1ccc(C2=NNC3(CCOC(C)(C)C3)S2)cc1` (configuration not stated) it is 14800 nM.
Under `CCN(CC)c1ccc(/C=C/c2ccc3ccc(OC)cc3[n+]2CC)cc1` stands 149 nM; under `COCCCN1C(=O)C(=O)/C(=C(/O)c2ccc(OCC(C)C)cc2C)C1c1cccnc1` (configuration not stated), > 15000 nM (inactive); under `C/C(=N\NC(=O)c1cc(C2CC2)nc2ccccc12)c1ccc(O)cc1O`, 2120 nM.
Under `CC(C)(C)c1nnc(NC(=O)CCS(=O)(=O)c2ccccc2)s1` stands 943 nM; under `CCn1c(COc2ccc(=O)n(-c3ccccc3)n2)nnc1SCc1cccc(OC)c1`, > 16000 nM (inactive).
Consider `O=[N+]([O-])c1ccc(S(=O)(=O)Nc2nc3ccccc3nc2Nc2ccccc2)cc1`, for which the EC50 is 1440 nM.
As for `O=C(N/N=C/c1c(O)ccc2ccccc12)c1cccc(C(F)(F)F)c1`, the EC50 is 242 nM.
In the case of `COc1cccc(/C=N/NC(=O)c2[nH]nc3c2CCc2ccccc2-3)c1O`, the EC50 was 857 nM.
Under `O=C(N/N=C/c1ccc(O)c2ncccc12)c1cccc(Br)c1` stands 1200 nM; under `COc1ccc(-n2c(-c3ccc(Br)cc3)c[n+]3c2SC(C)C3)cc1` (configuration not stated), 6770 nM.
With `Cc1ccc(-c2nc3ccc(Cl)cc3c(=O)n2O)cc1`, the EC50 is 2160 nM.
The figure for `Cc1cccc(C(=O)NNC2=C(C(=O)C(F)(F)F)CCC2)c1O` is 1230 nM; for `COc1ccc2[nH]c3c(C)c4ccncc4c(C)c3c2c1` it is 1440 nM.
In the case of `Cc1ncc(CO)c(/C=N/NC(=S)Nc2ccc(Cl)c(Cl)c2)c1O`, the EC50 was 1880 nM.
Under `CCCCN(C(=O)/C=C/c1ccco1)c1c(N)n(Cc2ccccc2)c(=O)[nH]c1=O` stands > 15000 nM (inactive); under `CSc1ncc(Cl)c(C(=O)C(C#N)c2nc3c(C)cc(C)cc3c(=O)[nH]2)n1` (configuration not stated), > 16000 nM (inactive).
On to `Cc1cc(Oc2ccccc2)nc(-c2ccccc2O)n1`, for which the EC50 was > 15000 nM (inactive).
Take `O=[N+]([O-])c1ccc(O)c(P(=O)(c2ccccc2)c2ccccc2)c1`: the EC50 is > 15000 nM (inactive).
Under `CCCCC(=O)NC(c1ccc(N(CC)CC)cc1)c1ccc2cccnc2c1O` (configuration not stated) stands 468 nM; under `CNC1=C(N(C(C)=O)c2ccc(Br)cc2)C(=O)c2ccccc2C1=O`, 190 nM; under `Cc1ccc(C(=O)Cn2cccn2)cc1`, 12700 nM.
The figure for `COc1ccc(C(=O)NC(=S)NNC(=O)c2cnccn2)cc1` is 3540 nM; for `Cc1ccc2c(c1)c(/C=C/c1cc[n+](C)cc1)c(C)n2C` it is > 16000 nM (inactive); for `N#C/C(=C(/O)COc1ccc(Cl)cc1)c1nc2ccccc2s1` it is > 15000 nM (inactive).
Regarding `CN(C)CCCNc1cc(C(C)(C)C)nc2c(-c3ccc(Cl)cc3)cnn12`, the EC50 was 5200 nM.
